{"source": "paper PMC7845594", "about": "“Novel Immune Modulators Enhance Caenorhabditis elegans Resistance to Multiple Pathogens” (mSphere, 2021)", "key": {"[1]": {"system": "C. elegans host defense pathway genes", "assay": "nanoString expression of 115 immune- and stress-responsive genes", "details": "100 μM LK molecules, 16 h", "protocol": "The ratio of MIC to EC was determined for each of the 69 compounds.\nAnalysis of the expression of 115 immune- and stress-responsive genes using nanoString technology. Download Table S1, XLSX file, 0.02 MB.\nFor nanoString-based (nanoString Technologies, Seattle, WA) experiments, 2,000 wild-type, young adult worms were exposed to 100 μM LK molecules or DMSO control in S Basal medium in 6-well plates for 16 h. RNA purification and gene expression analysis were performed according to nanoString guidelines. Two biological replicates were tested for each condition."}, "[2]": {"system": "C. elegans exposed to P. aeruginosa strain PA14", "assay": "P. aeruginosa slow-killing assay (agar)", "type": "in vivo, Caenorhabditis elegans", "details": "wild-type worms, 50 µM, Fig 8 (DMSO 58.9)", "excerpt": "The finding that each of the compounds activated PMK-1/p38 MAPK targets was of interest, as this pathway is associated with enhanced immunity against multiple bacterial pathogens in agar-based C. elegans assays. Therefore, we tested whether these compounds could promote survival in an agar-based, high-colonization pathogenesis model known as slow killing. Loss of PMK-1 activity substantially compromises survival in the slow-killing assay ([16], [47]). Wild-type, young adult worms were exposed to P. aeruginosa strain PA14 on agar plates impregnated with each of the five compounds. […] To see whether this depended upon the PMK-1 pathway, LK32, LK38, and LK56 were retested in worms where RNAi was used to knock down pmk-1/MAPK or atf-7/ATF7 (a key transcription factor whose activity is modulated by PMK-1 [63, 64]) (Fig. 9; see Table S2 in the supplemental material for TD50 and overall statistical significance).\nFIG 8 Four LK molecules extend C. elegans life span in the slow-killing assay. […] The data shown are from a representative replicate. Each of the three biological replicates was comprised of three plates per condition, with each plate containing ∼60 worms. Statistical significance was calculated using a log-rank test. Worms that left the surface of the plate were excluded from analysis (see Table S2 in the supplemental material for TD50 and exact P values).\nFIG 9 Rescue in slow killing by a subset of LK compounds depends upon the PMK-1/p38 MAPK pathway. Wild-type L4 worms were reared on RNAi targeting pmk-1/p38 MAPK, atf-7/ATF-7, or empty vector and placed onto slow-killing plates containing DMSO or LK32 (A and B), LK38 (C and D), or LK56 (E and F) at 50 µM. Starting at 24 h, worms were scored every 12 h for survival until all worms perished. Each of the three biological replicates was comprised of three plates, each plate contained approximately 50 to 70 worms. Statistical significance was calculated using log-rank test (see Table S2 in the supplemental material for TD50 and exact P values). For vector RNAi, DMSO versus compound, P < 0.001 for LK38, LK56, and LK32.\nSupplementary file : FIG S5 NSY-1 and SEK-1, upstream members of the PMK-1/p38 MAPK pathway, are required for LK38-mediated rescue. Young adult wild-type, nsy-1/MAP3K15(ag3), or sek-1/MAP2K6(km-4) mutants were exposed to P. aeruginosa in the slow-killing assay in the presence of DMSO or LK38. Data for each condition at each time point represent the average value for three plates from one representative replicate (of three replicates total). Each plate contained ∼60 worms. P values were calculated using a log-rank test (see Table S2 in the supplemental material for the TD50 and exact P values). For wild-type DMSO versus LK38 P < 0.001. No statistically significant difference was measured between LK38 and DMSO for either mutant. Download FIG S5, PDF file, 0.1 MB.\nSlow-killing (SK) plates were made as previously reported ([92]). Compounds were added to molten SK agar before pouring plates. After solidifying, 40 µl of PA14 overnight culture was spread on plates before incubating plates at 37°C for 24 h, followed by 25°C for 24 h. 5-fluoro-2′-deoxyuridine (FUDR) (0.1 mg/ml) was dropped on plates 30 min prior to picking worms, to ensure nematode sterility. Fifty to seventy L4-stage, wild-type worms were picked onto plates and scored every 12 h after the first 24 h, until all worms were dead. Three biological replicates were performed."}, "[3]": {"system": "reactive oxygen species (ROS)", "assay": "DHE staining (ROS level)", "type": "in vivo, Caenorhabditis elegans", "details": "50 or 100 µM, 10 h, no pathogen", "excerpt": "Previous work from our lab has established that the ESRE network plays an important role in the resistance of C. elegans to pyoverdine, the main virulence determinant in liquid killing, and recent evidence has shown that ESRE activation depends on increased reactive oxygen species (ROS) ([23], [38], [39]). To evaluate ESRE activation, worms carrying an hsp-16.1p::GFP reporter (which contains two ESRE motifs and was previously used as an indicator of ESRE activation [[39][–][41]]), were exposed to 50 or 100 μM LK35, LK38, LK56, juglone (positive control), or DMSO. […] ROS level was assessed based on the fluorescence of dihydroethidium (DHE; a ROS-specific dye) using a COPAS FlowSort for flow vermimetry.\nYoung adult wild-type (A), hsp-4p::GFP (B), hsp-16.1p::GFP (C), or rpt-3::GFP (D) worms were incubated with LK molecules at 50 or 100 µM, DMSO control, or positive controls. For panel A, the worms were treated with compound for 10 h, and then the worms were stained with 4 µM DHE for 1 h before washing and fluorescence measurement. For panels B to D, the worms were treated with compound for 15 h prior to fluorescence measurement. Mean values from at least three biological replicates are shown. *, P < 0.05; **, P < 0.01; ***, P < 0.001 (compared to the solvent control). P values were calculated using Student’s t test. Error bars represent the standard error of the mean. […]"}}, "data": [{"smiles": "Cc1cc(C2CCCCC2)n(O)c(=O)c1", "note": "[Ciclopirox, reference compound]", "values": [{"measurement": "B0024.4 expression, induction", "setting": "[1]", "value": 1.09, "unit": "fold"}, {"measurement": "C02B4.2 nhr-17 expression, induction", "setting": "[1]", "value": 5.80, "unit": "fold"}, {"measurement": "C06B3.7 expression, induction", "setting": "[1]", "value": 3.19, "unit": "fold"}, {"measurement": "C07G3.2 irg-1 expression, induction", "setting": "[1]", "value": 1.06, "unit": "fold"}, {"measurement": "C12C8.1 hsp-70 expression, induction", "setting": "[1]", "value": 3.28, "unit": "fold"}, {"measurement": "C15F1.7 sod-1 expression, induction", "setting": "[1]", "value": 2.15, "unit": "fold"}, {"measurement": "C29F7.2 expression, induction", "setting": "[1]", "value": 10.38, "unit": "fold"}, {"measurement": "C31A11.5 oac-6 expression, induction", "setting": "[1]", "value": 5.76, "unit": "fold"}, {"measurement": "C32D5.12 expression, induction", "setting": "[1]", "value": 1.22, "unit": "fold"}, {"measurement": "C32H11.1 expression, induction", "setting": "[1]", "value": 20.23, "unit": "fold"}, {"measurement": "C32H11.3 expression, induction", "setting": "[1]", "value": 2.02, "unit": "fold"}, {"measurement": "C34G6.4 pgp-2 expression, induction", "setting": "[1]", "value": 3.63, "unit": "fold"}, {"measurement": "C37C3.10 expression, induction", "setting": "[1]", "value": 12.27, "unit": "fold"}, {"measurement": "C37H5.8 hsp-6 expression, induction", "setting": "[1]", "value": 4.01, "unit": "fold"}, {"measurement": "C49G7.5 irg-2 expression, induction", "setting": "[1]", "value": 3.65, "unit": "fold"}, {"measurement": "F08F8.5 numr-1 expression, induction", "setting": "[1]", "value": 8.74, "unit": "fold"}, {"measurement": "F08H9.4 expression, induction", "setting": "[1]", "value": 4.96, "unit": "fold"}, {"measurement": "F14F9.3 expression, induction", "setting": "[1]", "value": 1.98, "unit": "fold"}, {"measurement": "F22B5.4 expression, induction", "setting": "[1]", "value": 2.49, "unit": "fold"}, {"measurement": "F22H10.2 expression, induction", "setting": "[1]", "value": 2.82, "unit": "fold"}, {"measurement": "F26A3.4 expression, induction", "setting": "[1]", "value": 2.35, "unit": "fold"}, {"measurement": "F35E8.11 cdr-1 expression, induction", "setting": "[1]", "value": 56.32, "unit": "fold"}, {"measurement": "F35G2.4 phy-2 expression, induction", "setting": "[1]", "value": 1.70, "unit": "fold"}, {"measurement": "F37B12.2 gcs-1 expression, induction", "setting": "[1]", "value": 1.30, "unit": "fold"}, {"measurement": "F43E2.8 hsp-4 expression, induction", "setting": "[1]", "value": 10.74, "unit": "fold"}, {"measurement": "F44E5.5 expression, induction", "setting": "[1]", "value": 2.67, "unit": "fold"}, {"measurement": "F49F1.6 expression, induction", "setting": "[1]", "value": 2.55, "unit": "fold"}, {"measurement": "F49F1.7 expression, induction", "setting": "[1]", "value": 15.81, "unit": "fold"}, {"measurement": "F49H6.13 expression, induction", "setting": "[1]", "value": 2.90, "unit": "fold"}, {"measurement": "F54B8.4 expression, induction", "setting": "[1]", "value": 6.33, "unit": "fold"}, {"measurement": "F55G11.2 expression, induction", "setting": "[1]", "value": 1.86, "unit": "fold"}, {"measurement": "F59A7.1 clec-206 expression, induction", "setting": "[1]", "value": 11.44, "unit": "fold"}, {"measurement": "F59B10.4 expression, induction", "setting": "[1]", "value": 1.20, "unit": "fold"}, {"measurement": "H12D21.1 nspa-1 expression, induction", "setting": "[1]", "value": 3.83, "unit": "fold"}, {"measurement": "H23N18.1 ugt-13 expression, induction", "setting": "[1]", "value": 5.56, "unit": "fold"}, {"measurement": "H23N18.3 ugt-8 expression, induction", "setting": "[1]", "value": 108.33, "unit": "fold"}, {"measurement": "K05B2.4 expression, induction", "setting": "[1]", "value": 8.10, "unit": "fold"}, {"measurement": "K08F4.7 gst-4 expression, induction", "setting": "[1]", "value": 2.79, "unit": "fold"}, {"measurement": "K09A9.1 nipi-3 expression, induction", "setting": "[1]", "value": 2.12, "unit": "fold"}, {"measurement": "K10D11.2 expression, induction", "setting": "[1]", "value": 2.25, "unit": "fold"}, {"measurement": "K10G4.3 expression, induction", "setting": "[1]", "value": 2.60, "unit": "fold"}, {"measurement": "R03D7.6 gst-5 expression, induction", "setting": "[1]", "value": 11.91, "unit": "fold"}, {"measurement": "R08H2.1 dhs-23 expression, induction", "setting": "[1]", "value": 120.99, "unit": "fold"}, {"measurement": "R10E8.3 expression, induction", "setting": "[1]", "value": 3.34, "unit": "fold"}, {"measurement": "T19D12.3 expression, induction", "setting": "[1]", "value": 2.80, "unit": "fold"}, {"measurement": "T19H12.1 ugt-9 expression, induction", "setting": "[1]", "value": 6.34, "unit": "fold"}, {"measurement": "T21E8.1 pgp-6 expression, induction", "setting": "[1]", "value": 0.94, "unit": "fold"}, {"measurement": "T22B7.3 expression, induction", "setting": "[1]", "value": 2.18, "unit": "fold"}, {"measurement": "T24C4.4 expression, induction", "setting": "[1]", "value": 1.62, "unit": "fold"}, {"measurement": "T24E12.5 expression, induction", "setting": "[1]", "value": 3.07, "unit": "fold"}, {"measurement": "T27E4.3 hsp-16.48 expression, induction", "setting": "[1]", "value": 2.96, "unit": "fold"}, {"measurement": "T27E4.8 hsp-16.1 expression, induction", "setting": "[1]", "value": 2.80, "unit": "fold"}, {"measurement": "T27F6.8 expression, induction", "setting": "[1]", "value": 4.80, "unit": "fold"}, {"measurement": "T28C12.4 expression, induction", "setting": "[1]", "value": 13.23, "unit": "fold"}, {"measurement": "W02D9.10 expression, induction", "setting": "[1]", "value": 2.74, "unit": "fold"}, {"measurement": "Y22D7AL.5 hsp-60 expression, induction", "setting": "[1]", "value": 2.19, "unit": "fold"}, {"measurement": "Y38E10A.15 nspe-7 expression, induction", "setting": "[1]", "value": 1.84, "unit": "fold"}, {"measurement": "Y46H3A.2 hsp-16.41 expression, induction", "setting": "[1]", "value": 2.63, "unit": "fold"}, {"measurement": "Y46H3A.3 hsp-16.2 expression, induction", "setting": "[1]", "value": 2.71, "unit": "fold"}, {"measurement": "Y56A3A.33 expression, induction", "setting": "[1]", "value": 3.70, "unit": "fold"}, {"measurement": "Y58A7A.5 expression, induction", "setting": "[1]", "value": 1.48, "unit": "fold"}, {"measurement": "ZC376.7 atfs-1 expression, induction", "setting": "[1]", "value": 3.27, "unit": "fold"}, {"measurement": "ZC443.6 ugt-16 expression, induction", "setting": "[1]", "value": 52.72, "unit": "fold"}, {"measurement": "ZK697.6 gst-21 expression, induction", "setting": "[1]", "value": 454.34, "unit": "fold"}]}, {"smiles": "Cc1ccc(Nc2nc(N)c3ccccc3n2)cc1Cl", "note": "[RPW-24, reference compound]", "values": [{"measurement": "TD50, slow killing", "setting": "[2]", "value": 63.7, "unit": "h"}]}, {"smiles": "C=C(C)[C@H]1Cc2c(ccc3c2O[C@@H]2COc4cc(OC)c(OC)cc4[C@@H]2C3=O)O1", "note": "[rotenone]", "values": [{"measurement": "ROS level (DHE staining)", "setting": "[3]", "value": "significant increase in staining"}]}]}
